In one experiment the test system is mice. Description: Haloperidol-induced catalepsy model (bar test) in the mouse. Format: in vivo. To be noted: 30 mg/kg i.p. consecutively with haloperidol 1 mg/kg i.p.; compared with vehicle; FIG. 1. On the procedure:
In-Vivo Evaluation in the Haldoperidol-Induced Catalepsy Model in the Mouse
This method, which detects anti-Parkinsonian activity, follows that described by Pires et al. (J Med and Biol Res 38 1867-1872, 2005; Shiozaki et al., Psychopharmacology 147, 90-95, 1999)
Catalepsy was assessed using the bar test in mice submitted to acute intra-peritoneal administration of Haloperidol 1 mg/kg. Mice (male Rj: NMRI mice, weighing 25-30 g at the beginning of the experiment) placed in group of 5 in Plexiglas cages, were injected with Haloperidol (1 mg/kg i.p.). […] The catalepsy response of one mouse was measured as the time the animal maintained an imposed posture with both forelimbs placed on a horizontal 0.9 cm diameter wire bar suspended 4 cm above a platform. The end point of catalepsy was considered to occur when both forelimbs were removed from the bar, the mouse climbed onto the bar or if the animal moved its head in an exploratory manner. A cut-off time of 180 seconds was applied. The degree of catalepsy was scored 45 min after Haloperidol administration and continued at 45 minutes intervals for a total of 270 minutes. Between determinations, the animals were returned to their home cages. The compound of Example 63, administered i.p. consecutively with haloperidol, was evaluated at 30 mg/kg and compared with a vehicle control group. […]

Experiment [1] has as its target T1, human mGluR4 transiently over-expressed in HEK-293 cells (Homo sapiens, UniProt Q14833).
T1 construct: expressed in transfected cells; host or cells: HEK-293 cells, transient co-transfection by electroporation
Description: Human mGluR4 positive allosteric modulator evaluation using Ca++ functional assay. Format: cell-based. To be noted: HEK-293 cells co-transfected with hmGluR4 and chimeric G protein; EC10 glutamate; intracellular calcium (Fluo4AM); read-out: mean EC50 of agonist/positive allosteric modulator activity on mGluR4. In short, it runs like this: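 Fluo4AM-loaded HEK-293 cells expressing hmGluR4 plus a chimeric G protein were read for intracellular Ca2+ (ex 485, em 525 nm). PAM effect measured as potentiation of EC10 glutamate after a 60 s compound-alone agonist read; EC50 from variable-slope sigmoidal fits of 6–9 doses, duplicates, twice.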
For orientation: Calcium assays in cells follow changes in intracellular calcium, usually with a dye or a luminescent sensor.

The structures appear in SMILES notation. Some results are limits rather than exact numbers.

T1 sequence (Q14833 33-912): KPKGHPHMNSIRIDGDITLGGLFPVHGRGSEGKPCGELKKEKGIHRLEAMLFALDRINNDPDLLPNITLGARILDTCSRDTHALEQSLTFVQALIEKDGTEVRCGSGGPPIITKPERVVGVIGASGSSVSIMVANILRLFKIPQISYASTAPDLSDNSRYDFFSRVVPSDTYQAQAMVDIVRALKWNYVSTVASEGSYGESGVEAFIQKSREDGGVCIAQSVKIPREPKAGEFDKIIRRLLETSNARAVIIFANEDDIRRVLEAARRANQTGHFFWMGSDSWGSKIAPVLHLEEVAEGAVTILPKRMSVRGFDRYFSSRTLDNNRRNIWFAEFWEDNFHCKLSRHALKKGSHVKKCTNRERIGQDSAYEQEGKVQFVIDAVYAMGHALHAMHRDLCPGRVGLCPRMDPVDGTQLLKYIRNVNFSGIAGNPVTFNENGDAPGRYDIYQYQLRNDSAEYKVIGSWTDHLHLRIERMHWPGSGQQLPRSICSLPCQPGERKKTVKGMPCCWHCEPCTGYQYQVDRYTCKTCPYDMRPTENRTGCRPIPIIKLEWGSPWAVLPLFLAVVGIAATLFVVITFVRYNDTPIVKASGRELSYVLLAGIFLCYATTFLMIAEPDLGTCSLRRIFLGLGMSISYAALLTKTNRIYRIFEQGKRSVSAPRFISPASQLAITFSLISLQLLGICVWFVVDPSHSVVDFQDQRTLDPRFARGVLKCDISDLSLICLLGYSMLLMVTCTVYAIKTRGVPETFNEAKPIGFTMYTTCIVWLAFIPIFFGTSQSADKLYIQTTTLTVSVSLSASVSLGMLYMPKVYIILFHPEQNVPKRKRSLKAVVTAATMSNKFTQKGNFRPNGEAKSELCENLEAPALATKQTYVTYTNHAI

`ON=c1cc(-c2cc3cccn3cn2)oc2ccccc12` [Example 63, 2-Pyrrolo[1,2-c]pyrimidin-3-yl-chromen-4-one oxime]: the “anticataleptic activity (mean time of latency spent on the bar)” value with mice is given as “significant anticataleptic activity”. In addition, in experiment [1], the EC50 was < 1 µM.

The values above are taken from patent US8962627B2, “Oxime derivatives and their use as allosteric modulators of metabotropic glutamate receptors” (Prestwick Chemical, Inc., priority 2009, dated 2015).
